The values that follow come from patent US20110251135A1, “INHIBITORS OF PERITONEAL SEEDING OF CANCER CELLS” (University of Utah Research Foundation, priority 2008, published 2011).

Each structure is given as a SMILES string.

The test system of assay [1] is transiently suspended DLD-1 cells. The experiment in a line: Apoptosis of transiently suspended cells during readhesion (annexin V assay). The conditions noted are these: DLD-1 transiently suspended, treated and allowed to readhere; 8 hours. In kind it is cell-based, human. Here is the method: (§1) The transiently suspended cells were lysed and allowed to bind to DNA oligonucleotides, containing the NF-κB consensus binding site, that were immobilized to 96-well plates. NF-κB protein bound to the oligonucleotides was detected by an antibody to the p65 subunit that only recognized p65 that is bound to DNA. The positive control was HeLa cells that were stimulated with TNFα. A control was performed using excess free NF-κB oligonucleotides (Competitor). […] NF-κB binding activity was determined by the TransAM assay as in FIG. 5A. […] The data shown represent typical results of three separate experiments. […] An immunoblot for COX-2 was performed.
(§2) Single cell suspensions were plated at 100,000 cells per well in 24-well plates in media containing DMSO, BAY 11-7082, BAY 11-7085, or MG-132 for 8-24 hours in an incubator. Alternatively, DMSO, BAY 11-7082, BAY 11-7085, or MG-132 were added to cells that were confluent and adherent for several days. The nonadherent cells were aspirated off with the media and spun for 3 minutes at 2,000 rpm in 15 mL polypropylene tubes. […] 400 μL of binding buffer was added to each tube and the cells were analyzed by flow cytometry immediately. The percent of apoptosis was determined as the percent of annexin V-positive, propidium iodide-negative cells of the total cells counted. […]

For assay [2], the system named is transiently suspended HCT-116 cells. The assay is described as above. In kind it is cell-based, human. The conditions noted are these: HCT-116 transiently suspended, treated and allowed to readhere; 8 hours. As to the method:
as §1, §2

The subject of the next assay is FLIP. The assay can be described thus: FLIP immunoblot in HT-29 cells. In kind it is cell-based, human. Here is the method: The data points represent the means of triplicate experiments and the error bars the standard errors of the means. […] The percent of apoptotic cells was then determined by the annexin V assay. […] The results shown are typical of two separate experiments. […] Immunoblots were performed for c-IAP-2, TRAF-1, TRAF-2, and FLIP. All lanes contain equal total protein.
The cells were washed twice in ice cold PBS and then lysed in 4° C. lysis buffer (50 mM HEPES, 150 mM NaCl, 1.5 mM MgCl2, 1 mM EGTA, 100 mM NaF, 10 mM Na2PO4, 1 mM Na3VO4, 10% glycerol, 1% TRITON™ X-100, and 1 μg/mL each of aprotinin, leupeptin, chymostatin, pepstatin) and clarified at 12,000 rpm at 4° C. for 15 minutes. The lysates were normalized for total protein concentration. […]
For immunodetection, the blocked blots were probed with primary antibody for 2 hours at 4° C. on a rocker. […] Alkaline phosphatase was detected by a colorimetric reaction using a BCIP (5-bromo-4-chloro-3-indolyl phosphate)/NBT (nitroblue tetrazolium) kit (Zymed).
Since HCT-116 colon cancer cells have relatively low levels of FLIP compared with other cancer cell lines (FIG. 13A), they were transfected with human c-FLIP. HCT-116 cells that were transfected with human c-FLIP or empty vector were transiently suspended and allowed to readhere in the presence of BAY 11-7085 for 8 hours. […]
(Immunoblotting shows a protein as a band on a membrane.)

Assay [3] has as its system BxPc-3 pancreatic cancer cells. The assay can be described thus: Athymic mouse model of peritoneal carcinomatosis (IP cancer cells, bioluminescent imaging, 9 days). In kind it is in vivo. The settings on record: BxPc-3 IP; BAY 11-7085 5 mg/kg IP 24 h before, then every 3 days for 9 days. Here is the method: (§3) Twenty-four hours later, […] Su.86 or BxPC-3 pancreatic cancer cells, that were stably transfected with a firefly luciferase construct, were delivered IP. […] At the end of treatment, the mice received luciferin IP and sacrificed. The abdominal cavities were exposed and the mice placed immediately in a bioluminescent imager and photographed. The individual intraabdominal peritoneal tumors were counted. The subset of tumor implants limited to the liver surface was determined as well. […] The proportion of mice with peritoneal and/or hepatic tumor implants were compared using a test of proportions (*p<0.05).

Assay [4] concerns Su.86 pancreatic cancer cells. Described as above. In kind it is in vivo. The conditions noted are these: Su.86 IP; BAY 11-7085 5 mg/kg IP 24 h before, then every 3 days for 9 days. As to the method: as §3
The test system of assay [5] is IκB phosphorylation and TNFα-induced NF-κB activation. The settings on record: Pierce et al., J Biol Chem 272:21096-103, 1997; cited from earlier work.
Another assay concerns JNK/SAPK and p38. The conditions noted are these: Pierce et al., J Biol Chem 272:21096-103, 1997; cited from earlier work.

As for `CC(C)(C)c1ccc(S(=O)(=O)/C=C/C#N)cc1` [BAY 11-7085, (2E)-3-[4-(tertiarybutylphenyl)sulfonyl]-2-propenenitrile], the “BAY 11-7085-induced apoptosis during readhesion” value in assay [1] is recorded as “showed the same propensity for BAY 11-7085-induced apoptosis”; in assay [2], “HCT-116 cells did not”. Moreover, the “expression of the 54 kilodalton (long) isoform of FLIP” value with FLIP (adherent HT-29, 20 μM) is listed as “only a slight diminution”. Further, in the assay with FLIP (readhering HT-29, 3 hours), the “FLIP expression in readhering HT-29 cells” value is “caused the down-regulation of FLIP after only 3 hours”. Further, the results for the “% with Liver Implants” value in assay [3] and in assay [4] were 29% and 0%, respectively. Further, the “% with Peritoneal Implants” value was 71% in assay [3] and 33% in assay [4]. In assay [5], the “IκB phosphorylation and TNFα-induced NF-κB activation” value is “inhibit IκB phosphorylation and TNFα-induced NF-κB activation”. Also, the “activation of JNK/SAPK and p38” value in the assay with JNK/SAPK and p38 is “activate JNK/SAPK and p38”.
